Experimental findings from US8741923B2, “Oxadiazole fused heterocyclic derivatives useful for the treatment of multiple sclerosis” (Merck Serono SA, priority 2008, dated 2014) are described below.

In experiment [1] the target is T1, S1P1 (Homo sapiens (Human), UniProt P21453). Put plainly: Receptor binding assay ([33P]sphingosine 1-phosphate, SPA) on S1P1 membranes. The settings on record: membranes from CHO cells expressing S1P1. The procedure: (§1) Receptor binding assay: Membranes were prepared from CHO cells expressing S1P1 or S1P3 for use in ligand and 35S-GTPγS binding studies. Cells were suspended in 50 mM TRIS, pH 7.4, 2 mM EDTA, 250 mM Sucrose (buffer A) and 1× Complete protease inhibitor cocktail (Roche), and disrupted at 4° C. by N2 decompression using a cell disruption bomb (Parr Instrument). Following centrifugation at 1000 RPM for 10 min at 4° C., the supernatant was suspended in buffer A and centrifuged again at 19000 RPM for 60 min at 4° C. The pellet was then suspended in 10 mM HEPES, pH 7.4, 1 mM EDTA, 250 mM Sucrose (Buffer B), and 1× Complete EDTA-free protease inhibitor cocktail and homogenized using a potter. Membranes were flash frozen in liquid N2 and stored at −80° C. [33P]sphingosine 1-phosphate (3000 Ci/mmol; American Radiolabeled Chemicals, Inc.) was added to test compounds in DMSO. Membranes and WGA SPA beads (GE Healthcare) were added to give a final volume of 100 μl in 96-well plates with assay concentrations of 25 μM or 10 μM [33P]sphingosine 1-phosphate (respectively for S1P1 or S1P3), 50 mM HEPES, pH 7.5, 5 mM MgCl2, 100 mM NaCl, 0.4% fatty acid-free BSA, 1-5 μg/well of proteins and 100 μg/well of WGA SPA beads. Binding was performed for 60 min at RT on a shaker and bound radioactivity was measured on a PerkinElmer 1450 MicroBeta counter. Specific binding was calculated by subtracting remaining radioactivity in the presence of 1000-fold excess of unlabeled S1P. Binding data were analyzed using the GraphPad Prism program.
T1 sequence (P21453 whole entry, species assumed): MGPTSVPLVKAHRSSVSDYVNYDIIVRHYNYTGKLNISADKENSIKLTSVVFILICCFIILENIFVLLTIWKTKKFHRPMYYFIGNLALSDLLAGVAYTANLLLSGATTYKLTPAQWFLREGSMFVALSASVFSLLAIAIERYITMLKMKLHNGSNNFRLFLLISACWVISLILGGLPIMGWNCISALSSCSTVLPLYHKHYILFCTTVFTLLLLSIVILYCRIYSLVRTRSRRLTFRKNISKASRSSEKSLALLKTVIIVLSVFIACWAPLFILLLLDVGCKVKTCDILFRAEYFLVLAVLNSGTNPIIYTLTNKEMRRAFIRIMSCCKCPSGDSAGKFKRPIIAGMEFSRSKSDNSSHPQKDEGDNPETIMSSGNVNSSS

Experiment [2] addresses T1, S1P1. Put plainly: 35S-GTPγS binding, S1P1 membranes. Format: biochemical. The settings on record: membranes from CHO cells expressing S1P1. The procedure:
as §1, with “Membranes and WGA SPA beads (GE Healthcare) were added to give a final volume of 100 μl in 96-well plates with assay concentrations of 25 μM or 10 μM [33P]sphingosine 1-phosphate (respectively for S1P1 or S1P3), 50 mM HEPES, pH 7.5, 5 mM MgCl2, 100 mM NaCl, 0.4% fatty acid-free BSA, 1-5 μg/well of proteins and 100 μg/well of WGA SPA beads. Binding was performed for 60 min at RT on a shaker and bound radioactivity was measured on a PerkinElmer 1450 MicroBeta counter.” left out
(§2) Measurements of 35S-GTPγS Binding:
After 60 min incubation at 30° C. on a shaker, plates were centrifuged for 10 min at 2000 RPM. […] Triplicate samples were averaged and expressed as % response relative to S1P activation in absence of compound (n=2).

Experiment [3] concerns the target S1P3 (Homo sapiens (Human), UniProt Q99500). Put plainly: 35S-GTPγS binding, S1P3 membranes. Type of experiment: biochemical. Particulars: membranes from CHO cells expressing S1P3. The procedure: as §1, §2
Membranes (1 to 10 μg protein) prepared as described above, were incubated in 96-well Scintiplates (PerkinElmer) with test compounds diluted in DMSO, in 180 μl of 20 mM HEPES, pH 7.4, 10 mM MgCl2, 2 μg/well Saponin, 0.2% fatty acid free BSA (Assay buffer), 140 mM NaCl and 1.7 μM GDP. The assay was initiated with the addition of 20 μl of 1.5 nM [35S]-GTPγS (1100 Ci/mmol; GE Healthcare) in assay buffer. After 60 min incubation at 30° C. on a shaker, plates were centrifuged for 10 min at 2000 RPM. Supernatant was discarded and membrane bound radioactivity was measured on a PerkinElmer 1450 MicroBeta counter. Triplicate samples were averaged and expressed as % response relative to S1P activation in absence of compound (n=2).
(Binding of GTPγS marks nucleotide exchange on a G protein.)

Chain of S1P3 (Q99500 whole entry, species assumed): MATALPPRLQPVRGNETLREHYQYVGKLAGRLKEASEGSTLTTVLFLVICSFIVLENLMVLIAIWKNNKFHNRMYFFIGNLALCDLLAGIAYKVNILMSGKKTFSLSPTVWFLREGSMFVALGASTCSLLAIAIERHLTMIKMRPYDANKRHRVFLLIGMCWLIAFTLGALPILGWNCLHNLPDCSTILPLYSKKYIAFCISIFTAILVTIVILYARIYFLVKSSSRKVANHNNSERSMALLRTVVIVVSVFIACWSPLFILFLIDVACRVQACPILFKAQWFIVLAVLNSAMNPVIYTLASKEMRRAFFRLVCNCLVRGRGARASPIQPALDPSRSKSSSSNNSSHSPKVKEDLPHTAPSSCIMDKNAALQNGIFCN

A word on the Ki: it is the dissociation constant of the complex between target and ligand, obtained from inhibition or displacement. Lower therefore signals tighter binding. Usually EC50 stands for the concentration at which the effect is half-maximal. `CC1CCCCN1c1ccc(-c2nc(-c3ccc4[nH]cnc4c3)no2)cc1C(F)(F)F` (stereo not drawn) [Compound 1, 5-{5-[4-(2-methylpiperidin-1-yl)-3-(trifluoromethyl)phenyl]-1,2,4-oxadiazol-3-yl}-1H-benzimidazole] displayed a Ki in experiment [1] of 5 nM. In addition, the 50% effective concentration (EC50) in experiment [2] was found to be 11 nM; in experiment [3], 621 nM.
`Cc1cc(-c2nc(-c3ccc4[nH]cnc4c3)no2)cnc1N1CCCCC1C` (stereo not drawn) [Compound 3, 5-{5-[5-methyl-6-(2-methylpiperidin-1-yl)pyridin-3-yl]-1,2,4-oxadiazol-3-yl}-1H-benzimidazole]: affinity in experiment [1] was put at a Ki of 38 nM. Moreover, in experiment [2], the EC50 came to 94 nM.
For `COCc1cc(-c2nc(-c3ccc4[nH]cnc4c3)no2)ccc1-c1ccccc1C` [Compound 4, 5-{5-[2-(methoxymethyl)-2′-methylbiphenyl-4-yl]-1,2,4-oxadiazol-3-yl}-1H-benzimidazole], in experiment [1], affinity was put at a Ki of 5 nM. Further, the concentration for a half-maximal effect (EC50) in experiment [2] came to 8.4 nM; in experiment [3] it was 325 nM.
In experiment [1], `Cc1ccccc1-c1ccc(-c2nc(-c3ccc4nc[nH]c4c3)no2)cc1CN(C)C` [Compound 5, 1-{4-[3-(1H-benzimidazol-6-yl)-1,2,4-oxadiazol-5-yl]-2′-methylbiphenyl-2-yl}-N,N-dimethylmethanamine] gave a Ki of 5 nM. In addition, a half-maximal response in experiment [2] (EC50) required 3.4 nM.
As for `CC1CCCCN1c1ccc(-c2nc(-c3ccc4c(c3)CNCC4)no2)cc1C(F)(F)F` (stereo not drawn) [Compound 10, 7-{5-[4-(2-methylpiperidin-1-yl)-3-(trifluoromethyl)phenyl]-1,2,4-oxadiazol-3-yl}-1,2,3,4-tetrahydroisoquinoline], the Ki in experiment [1] stood at 3 nM. The 50% effective concentration (EC50) is 12 nM in experiment [2] and 584 nM in experiment [3].
In experiment [1], `CC1CCCCN1c1ccc(-c2nc(-c3ccc4c(c3)CNCC4)no2)cc1NS(C)(=O)=O` (stereo not drawn) [Compound 11, N-{2-(2-methylpiperidin-1-yl)-5-[3-(1,2,3,4-tetrahydroisoquinolin-7-yl)-1,2,4-oxadiazol-5-yl]phenyl}methanesulfonamide] came in with a Ki of 4 nM. For the same compound, the concentration giving a half-maximal response (EC50) turned out to be 6 nM in experiment [2] and 159 nM in experiment [3].
`CC1CCCCN1c1ccc(-c2nc(-c3ccc4c(c3)CNCC4)no2)cc1C#N` (stereo not drawn) [Compound 12, 2-(2-methylpiperidin-1-yl)-5-[3-(1,2,3,4-tetrahydroisoquinolin-7-yl)-1,2,4-oxadiazol-5-yl]benzonitrile] returned an inhibitory constant (Ki) in experiment [1] of 0.8 nM. This compound also displayed a concentration giving a half-maximal response (EC50) in experiment [2] of 9 nM.
`COCc1cc(-c2nc(-c3ccc4c(c3)CNCC4)no2)ccc1-c1ccccc1C` [Compound 15, 7-{5-[2-(methoxymethyl)-2′-methylbiphenyl-4-yl]-1,2,4-oxadiazol-3-yl}-1,2,3,4-tetrahydroisoquinoline] gave a Ki in experiment [1] of 1 nM. This compound returned an EC50 in experiment [2] of 6 nM.
The like results for `COCc1cc(-c2nc(-c3ccc4c(c3)CN(CC(=O)O)CC4)no2)ccc1-c1ccccc1C` [Compound 16, [7-{5-[2-(methoxymethyl)-2′-methylbiphenyl-4-yl]-1,2,4-oxadiazol-3-yl}-3,4-dihydroisoquinolin-2(1H)-yl]acetic acid] were, in that order, 0.7 nM and 2.1 nM.
Compound `CC1CCCCN1c1ccc(-c2nc(-c3ccc4[nH]ccc4c3)no2)cc1NS(C)(=O)=O` (stereo not drawn) [Compound 22, N-[5-[3-(1H-indol-5-yl)-1,2,4-oxadiazol-5-yl]-2-(2-methylpiperidin-1-yl)phenyl]methanesulfonamide] came in with a Ki in experiment [1] of 164 nM. Further, the midpoint of the response in experiment [2], the EC50, lay at 16 nM.
Compound `COc1cc(-c2nc(-c3ccc4[nH]ncc4c3)no2)ccc1-c1cscc1C` [Compound 24, 5-{5-[3-methoxy-4-(4-methyl-3-thienyl)phenyl]-1,2,4-oxadiazol-3-yl}-1H-indazole] registered a Ki in experiment [1] of 3 nM. This compound also had a concentration giving a half-maximal response (EC50) in experiment [2] of 4 nM.
On to `Cc1ccccc1-c1ccc(-c2nc(-c3ccc4[nH]ncc4c3)no2)cc1C` [Compound 25, 5-[5-(2,2′-dimethylbiphenyl-4-yl)-1,2,4-oxadiazol-3-yl]-1H-indazole], for which, in experiment [1], the Ki came to 11 nM. For the same compound, a half-maximal response in experiment [2] (EC50) required 32 nM.
In experiment [1], `CCC1CCCCN1c1ccc(-c2nc(-c3ccc4[nH]cnc4c3)no2)cc1COC` (stereo not drawn) [Compound 27, 5-{5-[4-(2-ethylpiperidin-1-yl)-3-(methoxymethyl)phenyl]-1,2,4-oxadiazol-3-yl}-1H-benzimidazole] yielded a Ki of 4.26 nM. The compound further yielded an EC50 in experiment [2] of 17 nM.
